Legend:
H1 hESC [1] = experiment: Toxicity of the DMSO cryoprotectant to hESC without freezing (Group 2 vs control Group 1); type: cell-based, human; conditions: DMSO 10% in freezing medium, straws held 20 minutes at room temperature, not frozen; Group 1 vs. 2; cells grown three days
Description: (§1) hESC culture. H1 hESC from passage 51 to 57 (WiCell, Madison, Wis., USA) were cultured in Knockout™ DMEM supplemented with GlutaMAX™ (2 mM), sodium pyruvate (1.0 mM), non-essential amino acids (0.1 mM), penicillin (50 u/ml), streptomycin (50 u/ml), Knockout™ serum replacer (15%) (all from Invitrogen, Carlsbad, Calif., USA) and β-mercaptoethanol (0.1 mM; Sigma, St. Louis, Mo., USA). hESC were grown on gelatinized tissue culture plates seeded with primary mouse embryonic fibroblasts that had been exposed to 3000 Rads γ-irradiation. To passage, cells were washed once with calcium and magnesium free phosphate buffered saline (PBS; Invitrogen, Carlsbad, Calif., USA) and then exposed to 1.2 u/ml dispase (Invitrogen, Carlsbad, Calif., USA) dissolved in PBS supplemented with 10% FBS until colonies began to lift from the plate. The cell layer was washed off the plate and mechanically dispersed using a plugged 9-inch Pasteur pipette or a 5 ml pipette. At this point, cells were divided into tubes for each group. The cells were then pelleted through centrifugation at 1200 rpm for 3 minutes, washed and pelleted again in culture medium (described above). […]
(§2) Calculation of Survival. Survival was calculated as combined colony number and colony size relative to Group 1, which was set at 100% survival. The horizontal diameters of 10 colonies were measured. […]

H1 hESC [2] = experiment: Survival of hESC after slow, controlled-rate freezing and thaw (colony number and colony size relative to untreated control); type: cell-based, human; conditions: sucrose on thaw (cryoprotectant removal); concentration not given
Description: as §1, §2

| SMILES | toxicity to the hESC (H1 hESC [1]) | effect on survival following thaw (H1 hESC [2]) |
| --- | --- | --- |
| C[S+](C)[O-] [DMSO] | does not appear toxic |  |
| OC[C@H]1O[C@@](CO)(O[C@H]2O[C@H](CO)[C@@H](O)[C@H](O)[C@H]2O)[C@@H](O)[C@@H]1O [Sucrose] |  | harmful to survival |

Source: patent publication US7811819B2, “Cryopreservation of primate embryonic stem cells” (The University of Washington, priority 2005, dated 2010)
